Source: patent US10640497B2, “Microbiocidal oxadiazole derivatives” (SYNGENTA PARTICIPATIONS AG, priority 2015, dated 2020)

Experiments:
[1] = system: Puccinia recondita f. sp. tritici; assay: Fungicidal activity against Puccinia recondita f. sp. tritici, wheat, leaf disc preventative (brown rust); type: in vivo; conditions: foliar, wheat leaf segments, preventative (inoculated 1 day after application), 7-9 days after application, compared to untreated control
How it was run: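 Wheat cv. Kanzler leaf segments on water agar sprayed with compound (DMSO stock diluted in water), then inoculated with spore suspension 1 day later. Incubated at 19 °C, 75% rh, 12 h light/12 h dark; percent disease control versus untreated scored at 7-9 days after application.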

[2] = system: Phakopsora pachyrhizi; assay: Fungicidal activity against Phakopsora pachyrhizi, soybean, leaf disc preventative (Asian soybean rust); type: in vivo; conditions: foliar, 288 h, 12-14 days after application, compared to untreated control
How it was run: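 Soybean leaf discs on water agar were sprayed with compound diluted in water, then inoculated one day later with a spore suspension on the lower leaf surface. After 24-36 h dark at 20 °C, 75% rh, discs were held at 20 °C, 12 h light/day. Percent disease control versus untreated assessed 12-14 days post-application.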

[3] = system: Glomerella lagenarium (Colletotrichum lagenarium); assay: Fungicidal activity against Glomerella lagenarium (Colletotrichum lagenarium), liquid culture, cucumber, preventative (anthracnose); type: cell-based; conditions: Colletotrichum orbiculare, liquid culture (PDB), growth inhibition measured photometrically 3-4 days after application, compared to untreated control
How it was run: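 Glomerella lagenarium conidia in potato dextrose broth were exposed in 96-well plates to test compound diluted from DMSO stock with 0.025% Tween20 and incubated at 24 °C. Growth inhibition was read photometrically 3–4 days after application, as percent activity relative to untreated check.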

[4] = system: Puccinia recondita f. sp. tritici; assay: Fungicidal activity against Puccinia recondita f. sp. tritici, wheat, leaf disc curative (brown rust); type: in vivo; conditions: foliar, 144 h, wheat leaf segments, curative (applied 1 day after inoculation), 6-8 days after application, compared to untreated control
How it was run: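 Wheat cv. Kanzler leaf segments on agar, inoculated with brown rust spores and kept dark at 19 °C, 75% rh; formulated compound sprayed 1 day after inoculation (curative). Incubated 19 °C, 75% rh, 12 h light/dark; percent disease control vs untreated scored 6–8 days after application.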

Row | SMILES | melting point | pest or weed control at 200 ppm [1] | pest or weed control at 200 ppm [2] | inhibition of growth at 20 ppm [3] | pest or weed control at 200 ppm [4]
1 | CN(C)C(=O)N1CC(=O)N(Cc2ccc(-c3noc(C(F)(F)F)n3)cc2)C(=O)C1 [Compound A-56, N,N-dimethyl-3,5-dioxo-4-[[4-[5-(trifluoromethyl)-1,2,4-oxadiazol-3-yl]phenyl]methyl]piperazine-1-carboxamide] | 138 to 141 °C | ≥ 80% | ≥ 80% | ≥ 80% | ≥ 80%
2 | O=C1CCON1Cc1ccc(-c2noc(C(F)(F)F)n2)c(F)c1 [Compound A-68, 2-[[3-fluoro-4-[5-(trifluoromethyl)-1,2,4-oxadiazol-3-yl]phenyl]methyl]isoxazolidin-3-one] | 86 to 89 °C | ≥ 80% | ≥ 80% | ≥ 80% | ≥ 80%
3 | O=S1(=O)CCCN1Cc1ccc(-c2noc(C(F)(F)F)n2)cc1 [Compound B-1, 2-[[4-[5-(trifluoromethyl)-1,2,4-oxadiazol-3-yl]phenyl]methyl]-1,2-thiazolidine 1,1-dioxide] | 69 to 73 °C | ≥ 80% | ≥ 80% | ≥ 80% | ≥ 80%
4 | O=C1CCCN1c1ccc(-c2noc(C(F)(F)F)n2)cc1 [Compound C-1, 1-[4-[5-(trifluoromethyl)-1,2,4-oxadiazol-3-yl]phenyl]pyrrolidin-2-one] | 151 to 153 °C | ≥ 80% | ≥ 80% | ≥ 80% | ≥ 80%
5 | O=C1CCON1c1ccc(-c2noc(C(F)(F)F)n2)cc1 [Compound C-2, 2-[4-[5-(trifluoromethyl)-1,2,4-oxadiazol-3-yl]phenyl]isoxazolidin-3-one] | 74 to 77 °C | ≥ 80% | ≥ 80% | ≥ 80% | ≥ 80%
